According to PubChem BioAssay AID256 (DTP/NCI, 2004):
Where “and” joins values, the source holds several entries; their conditions need not be identical. Identical values can stand only once. Inconclusive results and toxic doses are left out.

System: CD2F1 mice, L1210 leukemia ip, survival T/C
Test: NCI In Vivo Anticancer Drug Screen. Data for tumor model L1210 Leukemia (intraperitoneal) in CD2F1 (CDF1) mice
Settings: higher = longer survival
In short: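 Activity against a transplanted murine tumor was judged by comparing the compound group with a vehicle group. The outcome in the treated animals was divided by that in the controls.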

[1] = endpoint: mean survival time, dose: 100.0 mg/kg/injection, schedule: Q01DX001 (ip), vehicle: saline with Tween-80
[2] = endpoint: mean survival time, dose: 200.0 mg/kg/injection, schedule: Q01DX001 (ip), vehicle: saline with Tween-80
[3] = endpoint: mean survival time, dose: 400.0 mg/kg/injection, schedule: Q01DX001 (ip), vehicle: saline with Tween-80
[4] = endpoint: mean survival time, dose: 50.0 mg/kg/injection, schedule: Q01DX009 (ip), vehicle: saline with Tween-80
[5] = endpoint: mean survival time, dose: 100.0 mg/kg/injection, schedule: Q01DX009 (ip), vehicle: saline with Tween-80
[6] = endpoint: mean survival time, dose: 200.0 mg/kg/injection, schedule: Q01DX009 (ip), vehicle: saline with Tween-80
[7] = endpoint: mean survival time, dose: 100.0 mg/kg/injection, schedule: Q04DX003 (ip), vehicle: saline with Tween-80
[8] = endpoint: mean survival time, dose: 200.0 mg/kg/injection, schedule: Q04DX003 (ip), vehicle: saline with Tween-80
[9] = endpoint: mean survival time, dose: 400.0 mg/kg/injection, schedule: Q04DX003 (ip), vehicle: saline with Tween-80
[10] = endpoint: mean survival time, dose: 50.0 mg/kg/injection, schedule: Q01DX009 (ip), vehicle: Klucel (hydroxypropylcellulose) (HPC)
[11] = endpoint: mean survival time, dose: 100.0 mg/kg/injection, schedule: Q01DX009 (ip), vehicle: Klucel (hydroxypropylcellulose) (HPC)
[12] = endpoint: mean survival time, dose: 200.0 mg/kg/injection, schedule: Q01DX009 (ip), vehicle: Klucel (hydroxypropylcellulose) (HPC)
[13] = endpoint: mean survival time, dose: 100.0 mg/kg/injection, schedule: Q04DX003 (ip), vehicle: saline
[14] = endpoint: mean survival time, dose: 200.0 mg/kg/injection, schedule: Q04DX003 (ip), vehicle: saline
[15] = endpoint: mean survival time, dose: 400.0 mg/kg/injection, schedule: Q01DX009 (ip), vehicle: saline with Tween-80

CN(C)C(=S)NN
T/C (endpoint: mean survival time, dose: 1.5 mg/kg/injection, schedule: Q01DX001 (ip), vehicle: saline): 92 % of control | T/C (endpoint: mean survival time, dose: 3.0 mg/kg/injection, schedule: Q01DX001 (ip), vehicle: saline): 97 % of control | T/C (endpoint: mean survival time, dose: 6.0 mg/kg/injection, schedule: Q01DX001 (ip), vehicle: saline): 97 % of control

CCOC(=O)c1cnc(SCc2ccccc2)nc1Nc1ccccc1
T/C [1]: 93 % of control | T/C [2]: 88 % of control | T/C [3]: 88 % of control

O=C(C1CO1)C(Cl)(Cl)Cl (centres undefined)
T/C (endpoint: median survival time, dose: 12.0 mg/kg/injection, schedule: Q01DX009 (ip), vehicle: saline): 111 % of control | T/C (endpoint: median survival time, dose: 25.0 mg/kg/injection, schedule: Q01DX009 (ip), vehicle: saline): 108 % of control | T/C (endpoint: median survival time, dose: 50.0 mg/kg/injection, schedule: Q01DX009 (ip), vehicle: saline): 117 % of control

CO[C@@]12[C@@H]3N[C@@H]3CN1C1=C(C(=O)C(N3CCCC3)=C(C)C1=O)[C@@H]2COC(N)=O
T/C (endpoint: median survival time, dose: 3.12 mg/kg/injection, schedule: Q01DX001 (ip), vehicle: saline with Tween-80): 165 % of control | T/C (endpoint: median survival time, dose: 6.26 mg/kg/injection, schedule: Q01DX001 (ip), vehicle: saline with Tween-80): 151 % of control | T/C (endpoint: median survival time, dose: 12.0 mg/kg/injection, schedule: Q01DX001 (ip), vehicle: saline with Tween-80): 152 % of control and 197 % of control | T/C (endpoint: median survival time, dose: 12.5 mg/kg/injection, schedule: Q01DX001 (ip), vehicle: saline with Tween-80): 370 % of control | T/C (endpoint: median survival time, dose: 24.0 mg/kg/injection, schedule: Q01DX001 (ip), vehicle: saline with Tween-80): 171 % of control and 326 % of control | T/C (endpoint: median survival time, dose: 25.0 mg/kg/injection, schedule: Q01DX001 (ip), vehicle: saline with Tween-80): 111 % of control | T/C (endpoint: median survival time, dose: 50.0 mg/kg/injection, schedule: Q01DX001 (ip), vehicle: saline with Tween-80): 91 % of control

CN(C)C/C(=N\OC(=O)c1ccccc1)c1ccc(Cl)cc1
T/C [4]: 107 % of control | T/C [1]: 96 % of control | T/C [5]: 96 % of control | T/C [2]: 104 % of control | T/C [6]: 96 % of control | T/C [3]: 93 % of control

CCOCC(C(=O)OCC)C(=O)OCC
T/C [7]: 104 % of control | T/C [8]: 102 % of control | T/C [9]: 104 % of control

COC(=O)C1CN1C1=C(C)C(=O)C2=C(C1=O)C(COC(N)=O)C1(OC)C3NC3CN21 (centres undefined)
T/C (endpoint: median survival time, dose: 1.5 mg/kg/injection, schedule: Q01DX001 (ip), vehicle: water): 104 % of control | T/C (endpoint: median survival time, dose: 3.0 mg/kg/injection, schedule: Q01DX001 (ip), vehicle: water): 103 % of control | T/C (endpoint: median survival time, dose: 6.0 mg/kg/injection, schedule: Q01DX001 (ip), vehicle: water): 123 % of control | T/C (endpoint: median survival time, dose: 12.0 mg/kg/injection, schedule: Q01DX001 (ip), vehicle: water): 123 % of control | T/C (endpoint: median survival time, dose: 24.0 mg/kg/injection, schedule: Q01DX001 (ip), vehicle: water): 121 % of control and 124 % of control

CCOC(=O)/C=C(C)/C=C/C1C(C)=CCCC1(C)C (centres undefined)
T/C (endpoint: mean survival time, dose: 100.0 mg/kg/injection, schedule: Q04DX002 (ip), vehicle: saline with Tween-80): 103 % of control | T/C (endpoint: mean survival time, dose: 200.0 mg/kg/injection, schedule: Q04DX002 (ip), vehicle: saline with Tween-80): 92 % of control | T/C (endpoint: mean survival time, dose: 400.0 mg/kg/injection, schedule: Q04DX002 (ip), vehicle: saline with Tween-80): 100 % of control

CC(C)(c1ccccn1)C(C)(C)c1ccccn1
T/C [4]: 96 % of control | T/C [5]: 104 % of control | T/C [6]: 100 % of control

C/C1=C/C2=CC(C)C[C@@H]2C(=O)[C@]2(C)C(=O)CC(C)(C)[C@H]2CC1=O (some centres undefined)
T/C (endpoint: mean survival time, dose: 0.13 mg/kg/injection, schedule: Q01DX009 (ip), vehicle: Klucel (hydroxypropylcellulose) (HPC)): 98 % of control | T/C (endpoint: mean survival time, dose: 0.25 mg/kg/injection, schedule: Q01DX009 (ip), vehicle: Klucel (hydroxypropylcellulose) (HPC)): 95 % of control | T/C (endpoint: mean survival time, dose: 0.5 mg/kg/injection, schedule: Q01DX009 (ip), vehicle: Klucel (hydroxypropylcellulose) (HPC)): 93 % of control | T/C (endpoint: mean survival time, dose: 1.0 mg/kg/injection, schedule: Q01DX009 (ip), vehicle: Klucel (hydroxypropylcellulose) (HPC)): 90 % of control

C1=C(CCc2c[nH]c3ccccc23)CCN(CCc2ccccc2)C1
T/C [10]: 103 % of control | T/C [11]: 95 % of control | T/C [12]: 122 % of control

CCOC(=O)/C=C/SCCCN
T/C [13]: 98 % of control | T/C [14]: 96 % of control

O=C(c1ccc(-c2ccccc2)cc1)C1CCCCC1
T/C [5]: 94 % of control | T/C [6]: 97 % of control | T/C [15]: 86 % of control

CC1C2CCC(C2)C1N (centres undefined)
T/C (endpoint: mean survival time, dose: 50.0 mg/kg/injection, schedule: Q01DX009 (ip), vehicle: saline): 99 % of control | T/C (endpoint: mean survival time, dose: 100.0 mg/kg/injection, schedule: Q01DX009 (ip), vehicle: saline): 99 % of control | T/C (endpoint: mean survival time, dose: 200.0 mg/kg/injection, schedule: Q01DX009 (ip), vehicle: saline): 99 % of control

O=C(O)CCC(NC(=O)c1ccccc1)C(=O)O (centres undefined)
T/C (endpoint: mean survival time, dose: 100.0 mg/kg/injection, schedule: Q01DX001 (ip), vehicle: Klucel (hydroxypropylcellulose) (HPC)): 96 % of control | T/C (endpoint: mean survival time, dose: 200.0 mg/kg/injection, schedule: Q01DX001 (ip), vehicle: Klucel (hydroxypropylcellulose) (HPC)): 96 % of control | T/C (endpoint: mean survival time, dose: 400.0 mg/kg/injection, schedule: Q01DX001 (ip), vehicle: Klucel (hydroxypropylcellulose) (HPC)): 100 % of control

O=C1C(=O)c2cccnc2C(NC2CC3CCC2C3)=C1Cl (centres undefined)
T/C (endpoint: mean survival time, dose: 75.0 mg/kg/injection, schedule: Q04DX003 (ip), vehicle: saline): 95 % of control | T/C (endpoint: mean survival time, dose: 150.0 mg/kg/injection, schedule: Q04DX003 (ip), vehicle: saline): 98 % of control | T/C (endpoint: mean survival time, dose: 300.0 mg/kg/injection, schedule: Q04DX003 (ip), vehicle: saline): 97 % of control

O=C(O)/C=C(/CC(=O)O)C(=O)O
T/C [13]: 98 % of control | T/C [14]: 94 % of control

CCCCP(=O)(O)O
T/C [1]: 92 % of control | T/C [2]: 100 % of control

CN(C)CCOc1ccccc1Cc1ccccc1
T/C [4]: 104 % of control | T/C [5]: 119 % of control | T/C [7]: 98 % of control | T/C [6]: 107 % of control | T/C [8]: 97 % of control

CN1CN(C)C(=O)S(=O)(=O)C1
T/C [5]: 105 % of control | T/C [7]: 92 % of control | T/C [6]: 103 % of control | T/C [8]: 93 % of control | T/C [15]: 107 % of control | T/C [9]: 98 % of control

CCC(C)CC(=O)Nc1cccc(O)c1 (centres undefined)
T/C [7]: 96 % of control | T/C [8]: 96 % of control | T/C [9]: 91 % of control

CC(=O)N(c1c(F)c(F)cc(F)c1F)c1c(F)c(F)cc(F)c1F
T/C [5]: 95 % of control | T/C [7]: 104 % of control | T/C [6]: 103 % of control | T/C [8]: 102 % of control | T/C [15]: 95 % of control | T/C [9]: 98 % of control

CCCCC(CC)COCC1CO1 (centres undefined)
T/C [10]: 102 % of control | T/C [11]: 96 % of control | T/C [12]: 100 % of control

Clc1ccccc1C(Nc1cnccn1)Nc1cnccn1
T/C (endpoint: median survival time, dose: 25.0 mg/kg/injection, schedule: Q01DX009 (ip), vehicle: saline with Tween-80): 97 % of control and 102 % of control | T/C (endpoint: median survival time, dose: 50.0 mg/kg/injection, schedule: Q01DX009 (ip), vehicle: saline with Tween-80): 97 % of control and 110 % of control | T/C (endpoint: median survival time, dose: 100.0 mg/kg/injection, schedule: Q01DX009 (ip), vehicle: saline with Tween-80): 108 % of control and 109 % of control | T/C (endpoint: median survival time, dose: 200.0 mg/kg/injection, schedule: Q01DX009 (ip), vehicle: saline with Tween-80): 113 % of control and 124 % of control | T/C (endpoint: median survival time, dose: 400.0 mg/kg/injection, schedule: Q01DX009 (ip), vehicle: saline with Tween-80): 92 % of control

CCOC(=O)Nc1cnc2nc[nH]c2c1N(C)C
T/C (endpoint: mean survival time, dose: 100.0 mg/kg/injection, schedule: Q01DX001 (ip), vehicle: carboxymethylcellulose (CMC)): 104 % of control | T/C (endpoint: mean survival time, dose: 200.0 mg/kg/injection, schedule: Q01DX001 (ip), vehicle: carboxymethylcellulose (CMC)): 104 % of control | T/C (endpoint: mean survival time, dose: 400.0 mg/kg/injection, schedule: Q01DX001 (ip), vehicle: carboxymethylcellulose (CMC)): 124 % of control

CC(O)CN1CCOCC1 (centres undefined)
T/C [5]: 101 % of control | T/C [6]: 105 % of control | T/C [15]: 100 % of control

O=C1NCC1c1ccccc1 (centres undefined)
T/C (endpoint: median survival time, dose: 25.0 mg/kg/injection, schedule: Q04DX003 (ip), vehicle: saline with Tween-80): 90 % of control | T/C (endpoint: median survival time, dose: 50.0 mg/kg/injection, schedule: Q04DX003 (ip), vehicle: saline with Tween-80): 90 % of control | T/C (endpoint: median survival time, dose: 100.0 mg/kg/injection, schedule: Q04DX003 (ip), vehicle: saline with Tween-80): 100 % of control | T/C (endpoint: median survival time, dose: 200.0 mg/kg/injection, schedule: Q04DX003 (ip), vehicle: saline with Tween-80): 90 % of control
